The text below walks through data of US20110124653A1, “ARYL-SULPHONAMIDIC DIMERS AS METALLOPROTEASES INHIBITORS” (BRACCO IMAGING S.P.A., priority 2008, published 2011).

Common to all, as to test: MMP inhibition assay, fluorogenic substrate FS-6
Format in all cases: biochemical
Common to all, as to conditions: substrate FS-6 (Mca-Lys-Pro-Leu-Gly-Leu-Dpa-Ala-Arg-NH2), enzyme and inhibitor incubated 4 h at 25° C., triplicate

The target of one assay is MMP-13 (Homo sapiens, UniProt P45452). As to the method: (§1) As reported therein, the inhibitory activity of the compounds of the invention was evaluated on the known fluorogenic substrate (Mca-Lys-Pro-Leu-Gly-Leu-Dpa-Ala-Arg-NH2), shortly referred to as FS-6 (see, as a reference, U. Neumann, Analytical Biochem. 2004, 328, 166-173).
(§2) Recombinant human pro-MMP-2 was supplied by Prof. Gillian Murphy (Department of Oncology, University of Cambridge, UK), while pro-MMP-13 and pro-MMP-14 were purchased from Calbiochem. […] Pro-MMP-14 was activated with trypsin 5 μg/ml for 15 min at 37° C. followed by soybean trypsin inhibitor (SBTI) 23 μg/ml. For assay measurements, the inhibitor stock solutions (DMSO, 100 mM) were further diluted, at seven different concentrations (0.01 nM-100 μM) for each MMP in the fluorimetric assay buffer (FAB: Tris 50 mM, pH=7.5, NaCl 150 mM, CaCl2 10 mM, Brij 35 0.05% and DMSO 1%). Activated enzyme (final concentration 2.9 nM for MMP-2, 1 nM for MMP-14, 0.33 nM for MMP-13) and inhibitor solutions were incubated in the assay buffer for 4 h at 25° C. After the addition of 200 μM solution of the fluorogenic substrate Mca-Lys-Pro-Leu-Gly-Leu-Dpa-Ala-Arg-NH2 (Bachem) (see, for a reference, Neumann, U.; Kubota, H.; Frei, K.; Ganu, V.; Leppert, D. Anal. Biochem. 2004, 328, 166) for all of the enzymes in DMSO (final concentration 2 μM), the hydrolysis was monitored every 15 sec. for 20 min recording the increase in fluorescence (λex=325 nm, λem=395 nm) using a Molecular Device SpectraMax Gemini XS plate reader.
(§3) The assays were performed in triplicate, in a total volume of 200 μl per well, in 96-well microtitre plates (Corning, black, NBS). Control wells lack inhibitor. The MMP inhibition activity was expressed in relative fluorescent units (RFU). Percent of inhibition was calculated from control reactions without the inhibitor. IC50 was determined using the formula: Vi/Vo=1/(1+[I]/IC50), where Vi is the initial velocity of substrate cleavage in the presence of the inhibitor at concentration [I] and Vo is the initial velocity in the absence of the inhibitor. Results were analyzed using SoftMax Pro software and GraFit software.

The target in another assay is T1, MMP-14 (Homo sapiens, UniProt P50281).
T1 construct: purchased Calbiochem
The procedure: as §1, §2, §3

The next assay deals with T2, MMP-2 (Homo sapiens, UniProt P08253).
T2 construct: Prof; Gillian Murphy (Department of Oncology, University of Cambridge, UK)
T2 sequence (P08253 110-660): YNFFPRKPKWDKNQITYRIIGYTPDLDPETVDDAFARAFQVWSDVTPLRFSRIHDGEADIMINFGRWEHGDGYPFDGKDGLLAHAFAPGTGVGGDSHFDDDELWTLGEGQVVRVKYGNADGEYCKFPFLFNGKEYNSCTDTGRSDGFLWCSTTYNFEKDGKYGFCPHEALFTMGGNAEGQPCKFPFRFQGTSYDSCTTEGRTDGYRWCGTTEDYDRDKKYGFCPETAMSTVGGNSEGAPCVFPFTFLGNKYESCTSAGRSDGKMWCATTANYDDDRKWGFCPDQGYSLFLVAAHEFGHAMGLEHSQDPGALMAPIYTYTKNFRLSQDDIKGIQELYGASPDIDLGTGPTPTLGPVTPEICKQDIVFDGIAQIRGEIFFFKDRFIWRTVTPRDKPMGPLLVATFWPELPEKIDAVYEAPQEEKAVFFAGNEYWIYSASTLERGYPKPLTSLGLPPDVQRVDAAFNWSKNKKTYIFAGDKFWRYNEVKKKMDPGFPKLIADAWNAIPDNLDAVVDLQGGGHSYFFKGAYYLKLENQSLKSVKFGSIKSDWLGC
As to the method: as §1, §2, §3

Take `O=C(CCCNC(=O)c1cccc(C(=O)NCCCC(=O)NCC[C@@H](NS(=O)(=O)c2ccc(-c3ccccc3)cc2)C(=O)NO)c1)NCC[C@@H](NS(=O)(=O)c1ccc(-c2ccccc2)cc1)C(=O)NO` [1b - example 16]: the figures for the IC50 against MMP-13, on MMP-14 and on MMP-2 were 2.4 nM, 31 nM and 3.7 nM, respectively.

For `O=C(NCC[C@H](C(=O)NO)N(OCCOCCN1CCN(C(=O)c2cccc(C(=O)N3CCN(CCOCCON([C@H](CCNC(=O)OCc4ccccc4)C(=O)NO)S(=O)(=O)c4ccc(-c5ccccc5)cc4)CC3)c2)CC1)S(=O)(=O)c1ccc(-c2ccccc2)cc1)OCc1ccccc1` [2b - example 17], the figures for the IC50 on MMP-13 and against MMP-2 were 1.93 nM and 3.6 nM, respectively.
